Patent US12662714B2, “Method for separation of adjacent lanthanide elements” (UT-Battelle, LLC, priority 2022, dated 2026)

How the values were obtained:
[1] = Solvent extraction of Lns, separation factor Dy/Nd; details: 0.1 M DGA, 1 M HNO3, 1 h
Procedure: (§1) General procedure: a 500 microliter (μL) aqueous phase consisting of 7 mM Ln(III) (0.5 mM of each Ln(III)) in 1 M HNO3 without or with aqBLPhen 1 (3, 13, or 25 mM) was contacted with an equal volume of organic phase containing 0.1 M DGA (3, 4, or 5). The two phases were contacted in a 1:1 ratio of organic/aqueous by end-over-end rotation in individual 1.8 mL capacity snap-top Eppendorf tubes using a rotating wheel in an airbox set at 25.5±0.5° C. Contacts were performed in triplicate with a contact time of 1 hour. The samples were centrifuged at 1811 g for 2 min at room temperature to separate the phases. Each triplicate was then sub-sampled, using a 300 μL aliquot of the aqueous phase transferred to individual polypropylene tubes and diluted with 2% HNO3 for analysis using ICP-MS or ICP-OES. Two samples of the initial lanthanide solution were similarly prepared.
(§2) The ability of 1 and DGA to separate Lns was evaluated using a two-component, immiscible solvent system: nitric acid (aqueous phase containing 1) and n-dodecane with 10 vol % 1-octanol (oil phase containing DGA). The amount of Ln partitioned from the aqueous phase into the oil phase was measured using inductively coupled plasma optical emission spectroscopy or mass spectrometry. The Ln concentration in each phase was then used to calculate the separation efficiency.
(§3) The percentage of Lns in the aqueous and the oil phases is presented in FIGS. 1a-1i. for each DGA in the absence and presence of the aqueous complexant 1 (E=([Ln1]/[Ln1]0)×100%). The distribution ratios (i.e., D=[Ln1]org/[Ln1]aq) for select Lns are listed in Table 1, which also include selectivities (i.e., SFLn1/Ln2=DLn1/DLn2), for several Ln pairs. An efficient separation of Lns was achieved when DLn1>1 and DLn2<1 or ELn1>50% and ELn2<50%. […] Neither of the three DGAs can separate Lns in a single extraction stage.

[2] = Solvent extraction of Lns, separation factor Nd/Pr; details: 0.1 M DGA, 1 M HNO3, 1 h
Procedure: as §1, §2, §3

[3] = Solvent extraction of Lns, distribution ratio of La; details: 1 M HNO3, 1 h
Procedure: as §1, §2, §3

[4] = Solvent extraction of Lns, separation factor Sm/Nd; details: 0.1 M DGA, 1 M HNO3, 1 h
Procedure: as §1, §2, §3

[5] = Solvent extraction of Lns, separation factor Gd/La; details: 0.1 M DGA, 1 M HNO3, 1 h
Procedure: as §1, §2, §3

[6] = Solvent extraction of Lns, separation factor Tb/Gd; details: 0.1 M DGA, 1 M HNO3, 1 h
Procedure: as §1, §2, §3

[7] = Solvent extraction of Lns, distribution ratio of Sm; details: 0.1 M DGA, 1 M HNO3, 1 h
Procedure: as §1, §2, §3

[8] = Solvent extraction of Lns, distribution ratio of Nd; details: 0.1 M DGA, 1 M HNO3, 1 h
Procedure: as §1, §2, §3

[9] = Extraction of 14 Lns from aqueous phase into oil phase
Procedure: as §1, §2, §3

[10] = Solvent extraction of Lns, distribution ratio of Gd; details: 0.1 M DGA, 1 M HNO3, 1 h
Procedure: as §1, §2, §3

[11] = SAXS, radius of gyration of aggregates in solution; assay type: physicochemical
Procedure: The mesoscale structure of 1 and 1-Pr complexes in the aqueous solution and the local coordination environment around Pr in the 1-Pr structure were investigated using small-angle X-ray scattering (SAXS) and extended X-ray absorption fine structure (EXAFS) spectroscopy at the Pr L3 edge, respectively. In the absence of Pr, 13 mM of 1 in 1 M HNO3 forms large aggregates with a radius of gyration (Rg) of ˜15 A, as represented by the steepest slope in FIG. 5a. The addition of smaller amounts of Pr (2.5 mM) reduces the aggregate size in solution by ˜5 A.
Under conditions where 1 is expected to be fully coordinated with Pr (assuming the formation of [Pr-(1)2(NO3)3], when [Pr]=7.5 mM), the aggregates further reduce in size (Rg=6.7 A). This is consistent with the trends seen in the NMR data above. In addition, variable temperature NMR was taken of 1 without and with Pr. At elevated temperatures (up to 313 K), the spectral quality of 1 degrades dramatically and is irreversible, which is indicative of additional aggregate formation in solution. In the presence of Pr, however, the ^1H chemical shifts representing 1 remain unchanged and the peaks narrow due to increased molecular motion.

Solubility = assay type: physicochemical
Text: The solubility of 1 in 0.9 M nitric acid (HNO3) is >0.2 M. The three DGAs selected for this study were: N,N′-dimethyl-N,N′-di(n-octyl)diglycolamide (DMDODGA, 3), N,N,N′,N′-tetra(n-octyl)diglycolamide (TODGA, 4), and N,N-didodecyl-2-((1-hexyl-2-oxopiperidin-3-yl)oxy)acetamide (DDHPA, 5), whose structures are shown above. […] However, they differ in terms of binding affinity for lanthanides in the order 3>4>5. The stability of DGA-Ln complexes is affected by the size of N-alkyl substituents on the DGA ligand; larger substituents tend to obstruct the metal ion binding site that is decorated with three oxygen donor groups, resulting in diminished affinity for Lns with lower effective nuclear charge. Ligand 2, with unconstrained amide groups, was synthesized as a control substrate.
However, its performance in separating Lns is very different.

[12] = 1H NMR titration, binding constants for La complexes; details: 1 M DNO3
Text: Complexation of 1 with lanthanides was further assessed using nuclear magnetic resonance (NMR) spectroscopy. […] As the concentration of La increases (top to bottom), a downfield shift of ˜1.1 ppm occurs in the most downfield aromatic ^1H of 1, confirming complex formation. […] For 1 alone, some heterogeneity and broadening in the peak structure is observed, which can be attributed to aggregate formation. While the ethylene glycol units solubilize 1, the hydrophobic cores still cluster together to form aggregate structures (vide infra). As the La concentration increases, it disrupts these clusters and stabilizes 1-La units. The change in chemical shift of the most downfield aromatic ^1H was used to assess binding constants for La complexes with 1 in 1 M DNO3. The results were fitted using commercial software to yield binding constants of K1>10^2 M^−1 and K2>>10^5 M^−1 for the 1:1 and 2:1 ligand to metal binding modes, respectively. […] In the Lu titration, some downfield shift was observed, but the peaks became increasingly heterogenous and broad. This may be attributed to poor binding affinity where transient interactions occur, but no stable structure was formed, which was consistent with the selectivity data presented above.

[13] = REE(III)-HCl-EHEHPA system; cited from earlier work
[14] = [1] 0 mM, 0.1 M DGA in n-dodecane with 10 vol % 1-octanol, 0.5 mM each Ln

CCCCCCCCN(CCCCCCCC)C(=O)COCC(=O)N(CCCCCCCC)CCCCCCCC [Ligand 4, N,N,N′,N′-tetra(n-octyl)diglycolamide]
SFDy/Nd separation factor ([1]; [1] 0 mM): 70
SFDy/Nd separation factor ([1]; [1] 3 mM): 408
SFDy/Nd separation factor ([1]; [1] 13 mM): 1052
SFDy/Nd separation factor ([1]; [1] 25 mM): 782
SFNd/Pr separation factor ([2]; [1] 0 mM): 2.2
SFNd/Pr separation factor ([2]; [1] 3 mM): 2.7
SFNd/Pr separation factor ([2]; [1] 13 mM): 2.2
SFNd/Pr separation factor ([2]; [1] 25 mM): 1.8
DLa distribution ratio [3, 14]: 2.52
DLa distribution ratio ([3]; [1] 3 mM, 0.1 M DGA): 0.21
DLa distribution ratio ([3]; [1] 13 mM, 0.1 M DGA): 0.05
DLa distribution ratio ([3]; [1] 25 mM, 0.1 M DGA): 0.05
SFSm/Nd separation factor ([4]; [1] 0 mM): 6.4
SFSm/Nd separation factor ([4]; [1] 3 mM): 13
SFSm/Nd separation factor ([4]; [1] 13 mM): 16
SFSm/Nd separation factor ([4]; [1] 25 mM): 13
SFGd/La separation factor ([5]; [1] 0 mM): 153
SFGd/La separation factor ([5]; [1] 3 mM): 783
SFGd/La separation factor ([5]; [1] 13 mM): 413
SFGd/La separation factor ([5]; [1] 25 mM): 308
SFTb/Gd separation factor ([6]; [1] 0 mM): 2.7
SFTb/Gd separation factor ([6]; [1] 3 mM): 3.4
SFTb/Gd separation factor ([6]; [1] 13 mM): 5.4
SFTb/Gd separation factor ([6]; [1] 25 mM): 5.3
DSm distribution ratio ([7]; [1] 0 mM): 120
DSm distribution ratio ([7]; [1] 3 mM): 28.1
DSm distribution ratio ([7]; [1] 13 mM): 2.35
DSm distribution ratio ([7]; [1] 25 mM): 1.82
DNd distribution ratio ([8]; [1] 0 mM): 18.6
DNd distribution ratio ([8]; [1] 3 mM): 2.18
DNd distribution ratio ([8]; [1] 13 mM): 0.15
DNd distribution ratio ([8]; [1] 25 mM): 0.14
extraction of Lns from the aqueous phase into the oil phase ([9]; 0.1 M DGA alone, 14 Lns 0.5 mM each, 1 M HNO3): reduced affinity for light Lns
DGd distribution ratio ([10]; [1] 0 mM): 386
DGd distribution ratio ([10]; [1] 3 mM): 164
DGd distribution ratio ([10]; [1] 13 mM): 19.3
DGd distribution ratio ([10]; [1] 25 mM): 14.2

O=c1[nH]c(COCCO)c(COCCO)c2cc3ccc4cc5c(COCCO)c(COCCO)[nH]c(=O)c5nc4c3nc12 [Ligand 1, 3,4,9,10-tetrakis((2-hydroxyethoxy)methyl)-2,11-dihydrodipyrido[3,4-b:4′,3′-j]1,10 phenanthroline-1,12-dione]
reduction of aggregate size ([11]; 13 mM of 1, Pr 2.5 mM): ~5 A
radius of gyration (Rg) of aggregates ([11]; 13 mM of 1, [Pr]=7.5 mM): 6.7 A
radius of gyration (Rg) of aggregates ([11]; 13 mM of 1 in 1 M HNO3, absence of Pr): ~15 A
solubility (Solubility; aqueous buffer, in 0.9 M nitric acid (HNO3)): > 200 mM
binding constant K1 (1:1 ligand to metal) [12]: > 10^2 M^−1
binding constant K2 (2:1 ligand to metal) [12]: > 10^5 M^−1

CCCCCCCCCCCCN(CCCCCCCCCCCC)C(=O)COC1CCCN(CCCCCC)C1=O (stereo not shown) [Ligand 5, N,N-didodecyl-2-((1-hexyl-2-oxopiperidin-3-yl)oxy)acetamide]
SFDy/Nd separation factor ([1]; [1] 0 mM): 130
SFDy/Nd separation factor ([1]; [1] 3 mM): 260
SFDy/Nd separation factor ([1]; [1] 13 mM): 133
SFDy/Nd separation factor ([1]; [1] 25 mM): 123
SFNd/Pr separation factor ([2]; [1] 0 mM): 2.0
SFNd/Pr separation factor ([2]; [1] 3 mM): 1.8
SFNd/Pr separation factor ([2]; [1] 13 mM): 0.9
SFNd/Pr separation factor ([2]; [1] 25 mM): 1.0
DLa distribution ratio [3, 14]: 0.18
DLa distribution ratio ([3]; [1] 3 mM, 0.1 M DGA): 0.12
DLa distribution ratio ([3]; [1] 13 mM, 0.1 M DGA): 0.08
DLa distribution ratio ([3]; [1] 25 mM, 0.1 M DGA): 0.06
SFSm/Nd separation factor ([4]; [1] 0 mM): 7.2
SFSm/Nd separation factor ([4]; [1] 3 mM): 8.0
SFSm/Nd separation factor ([4]; [1] 13 mM): 2.0
SFSm/Nd separation factor ([4]; [1] 25 mM): 2.5
SFGd/La separation factor ([5]; [1] 0 mM): 128
SFGd/La separation factor ([5]; [1] 3 mM): 109
SFGd/La separation factor ([5]; [1] 13 mM): 12
SFGd/La separation factor ([5]; [1] 25 mM): 14
SFTb/Gd separation factor ([6]; [1] 0 mM): 3.3
SFTb/Gd separation factor ([6]; [1] 3 mM): 3.7
SFTb/Gd separation factor ([6]; [1] 13 mM): 5.1
SFTb/Gd separation factor ([6]; [1] 25 mM): 5.8
DSm distribution ratio ([7]; [1] 0 mM): 6.21
DSm distribution ratio ([7]; [1] 3 mM): 2.53
DSm distribution ratio ([7]; [1] 13 mM): 0.16
DSm distribution ratio ([7]; [1] 25 mM): 0.17
DNd distribution ratio ([8]; [1] 0 mM): 0.87
DNd distribution ratio ([8]; [1] 3 mM): 0.32
DNd distribution ratio ([8]; [1] 13 mM): 0.08
DNd distribution ratio ([8]; [1] 25 mM): 0.07
DGd distribution ratio ([10]; [1] 0 mM): 23.0
DGd distribution ratio ([10]; [1] 3 mM): 13.4
DGd distribution ratio ([10]; [1] 13 mM): 0.98
DGd distribution ratio ([10]; [1] 25 mM): 0.88

CCCCC(CC)COP(=O)(O)CC(CC)CCCC (stereo not shown) [EHEHPA, 2-ethylhexylphosphonic acid mono-(2-ethylhexyl) ester]
selectivity for Nd over Pr [13]: 1.17

O=C(c1ccc2ccc3ccc(C(=O)N(CCOCCO)CCOCCO)nc3c2n1)N(CCOCCO)CCOCCO [Ligand 2]
aqueous solubility (Solubility; aqueous): excellent aqueous solubility
affinity for light lanthanides as aqueous complexant ([9]; 13 mM in aqueous phase, FIG. 2): limited affinity for light lanthanides
